pIC50: −log10 of the molar value. Active and inactive are the calls of the source. The calls are words filed in the database; no cut-off is given here.
Tests used:
MDA-MB-231 [1] = test: Antiproliferative activity against human MDA-MB-231 cells expressing AXL assessed as inhibition of cell growth incubated for 72 hrs by CCK8 assay; assay type: functional, cell-based; settings: MDA-MB-231, 72 h
MDA-MB-231 [2] = test: Induction of cell cycle arrest in human MDA-MB-231 cells assessed as decrease in cyclin B1 level at 100 to 300 nM by Western blot analysis; assay type: functional, cell-based; settings: dose 100-300 nM
MDA-MB-231 [3] = test: Induction of cell cycle arrest in human MDA-MB-231 cells assessed as accumulation of cell at G2/M phase at 300 nM incubated for 24 hrs by PI staining based flow cytometric analysis (reference value: 24.34 to 24.44%); assay type: functional
MDA-MB-231 [4] = test: Induction of cell cycle arrest in human MDA-MB-231 cells assessed as G0/G1 phase cells at 33.3 nM incubated for 24 hrs by PI staining based flow cytometric analysis (reference value: 63.32 to 64.94%); assay type: functional
MDA-MB-436 = test: Antiproliferative activity against human MDA-MB-436 cells expressing AXL assessed as inhibition of cell growth incubated for 72 hrs by CCK8 assay; assay type: functional, cell-based; settings: MDA-MB-436, 72 h
MDA-MB-231 [5] = test: Induction of apoptosis in human MDA-MB-231 cells assessed as necrotic cells at 100 nM incubated for 48 hrs by Annexin V-PE staining based flow cytometric analysis (reference value: 2.64 to 3.23%); assay type: functional
MDA-MB-231 [6] = test: Induction of apoptosis in human MDA-MB-231 cells assessed as early apoptotic cells at 300 nM incubated for 48 hrs by Annexin V-PE staining based flow cytometric analysis (reference value: 3.95 to 3.74%); assay type: functional
MDA-MB-231 [7] = test: Inhibition of migration in human MDA-MB-231 cells at 3.7 to 100 nM incubated for 18 hrs by transwell assay; assay type: functional, cell-based; settings: dose 3.7-100 nM
MDA-MB-231 [8] = test: Induction of cell cycle arrest in human MDA-MB-231 cells assessed as S phase cells at 100 nM incubated for 24 hrs by PI staining based flow cytometric analysis (reference value: 9.64 to 10.79%); assay type: functional
MDA-MB-231 [9] = test: Induction of cell cycle arrest in human MDA-MB-231 cells assessed as S phase cells at 300 nM incubated for 24 hrs by PI staining based flow cytometric analysis (reference value: 9.64 to 10.79%); assay type: functional
MDA-MB-231 [10] = test: Induction of apoptosis in human MDA-MB-231 cells assessed as late apoptotic cells at 100 nM incubated for 48 hrs by Annexin V-PE staining based flow cytometric analysis (reference value: 0.32 to 0.82%); assay type: functional
[11] = molecular target: ALK tyrosine kinase receptor (Homo sapiens, UniProt Q9UM73); test: Inhibition of ALK (unknown origin)
MDA-MB-231 [12] = test: Induction of apoptosis in human MDA-MB-231 cells assessed as upregulation of cleaved PARP expression at 100 to 300 nM by Western blot analysis; assay type: functional, cell-based; settings: dose 100-300 nM
MDA-MB-453 = test: Antiproliferative activity against human MDA-MB-453 cells assessed as inhibition of cell growth incubated for 72 hrs by CCK8 assay; assay type: functional, cell-based; settings: MDA-MB-453, 72 h
MDA-MB-231 [13] = test: Induction of apoptosis in human MDA-MB-231 cells assessed as viable cells at 100 nM incubated for 48 hrs by Annexin V-PE staining based flow cytometric analysis (reference value: 92.59 to 92.71%); assay type: functional; settings: read-out: Activity
MDA-MB-231 [14] = test: Induction of cell cycle arrest in human MDA-MB-231 cells assessed as accumulation of cell at G2/M phase at 33.3 nM incubated for 24 hrs by PI staining based flow cytometric analysis (reference value: 24.34 to 24.44%); assay type: functional
MDA-MB-231 [15] = test: Induction of cell cycle arrest in human MDA-MB-231 cells assessed as accumulation of cell at G2/M phase at 100 nM incubated for 24 hrs by PI staining based flow cytometric analysis (reference value: 24.34 to 24.44%); assay type: functional
MDA-MB-231 [16] = test: Induction of apoptosis in human MDA-MB-231 cells assessed as late apoptotic cells at 33.3 nM incubated for 48 hrs by Annexin V-PE staining based flow cytometric analysis (reference value: 0.32 to 0.82%); assay type: functional
MDA-MB-231 [17] = test: Induction of apoptosis in human MDA-MB-231 cells assessed as necrotic cells at 33.3 nM incubated for 48 hrs by Annexin V-PE staining based flow cytometric analysis (reference value: 2.64 to 3.23%); assay type: functional
MDA-MB-231 [18] = test: Induction of apoptosis in human MDA-MB-231 cells assessed as downregulation of caspase-9 expression at 100 to 300 nM by Western blot analysis; assay type: functional, cell-based; settings: dose 100-300 nM
MDA-MB-231 [19] = test: Induction of apoptosis in human MDA-MB-231 cells assessed as early apoptotic cells at 33.3 nM incubated for 48 hrs by Annexin V-PE staining based flow cytometric analysis (reference value: 3.95 to 3.74%); assay type: functional
MDA-MB-231 [20] = test: Induction of cell cycle arrest in human MDA-MB-231 cells assessed as S phase cells at 33.3 nM incubated for 24 hrs by PI staining based flow cytometric analysis (reference value: 9.64 to 10.79%); assay type: functional
MDA-MB-231 [21] = test: Induction of apoptosis in human MDA-MB-231 cells assessed as early apoptotic cells at 100 nM incubated for 48 hrs by Annexin V-PE staining based flow cytometric analysis (reference value: 3.95 to 3.74%); assay type: functional
MDA-MB-231 [22] = test: Induction of apoptosis in human MDA-MB-231 cells assessed as viable cells at 300 nM incubated for 48 hrs by Annexin V-PE staining based flow cytometric analysis (reference value: 92.59 to 92.71%); assay type: functional; settings: read-out: Activity
MDA-MB-231 [23] = test: Induction of apoptosis in human MDA-MB-231 cells assessed as late apoptotic cells at 300 nM incubated for 48 hrs by Annexin V-PE staining based flow cytometric analysis (reference value: 0.32 to 0.82%); assay type: functional
MDA-MB-231 [24] = test: Induction of cell cycle arrest in human MDA-MB-231 cells assessed as decrease in CDK2 level at 100 to 300 nM by Western blot analysis; assay type: functional, cell-based; settings: dose 100-300 nM
MDA-MB-231 [25] = test: Induction of apoptosis in human MDA-MB-231 cells assessed as viable cells at 33.3 nM incubated for 48 hrs by Annexin V-PE staining based flow cytometric analysis (reference value: 92.59 to 92.71%); assay type: functional; settings: read-out: Activity
[26] = molecular target: Serine/threonine-protein kinase AKT (Homo sapiens) (UniProt P31751+Q9Y243+P31749); test: Inhibition of AKT phosphorylation in human MDA-MB-231 at 1.2 to 100 nM incubated for 18 hrs by Western blot analysis; assay type: cell-based; settings: dose 1.2-100 nM
MDA-MB-231 [27] = test: Inhibition of cell invasion in human MDA-MB-231 cells at 3.7 to 100 nM incubated for 18 hrs by transwell assay; assay type: functional, cell-based; settings: dose 3.7-100 nM
MDA-MB-231 [28] = test: Induction of apoptosis in human MDA-MB-231 cells assessed as necrotic cells at 300 nM incubated for 48 hrs by Annexin V-PE staining based flow cytometric analysis (reference value: 2.64 to 3.23%); assay type: functional
MDA-MB-231 [29] = test: Induction of cell cycle arrest in human MDA-MB-231 cells assessed as G0/G1 phase cells at 100 nM incubated for 24 hrs by PI staining based flow cytometric analysis (reference value: 63.32 to 64.94%); assay type: functional
MDA-MB-231 [30] = test: Induction of cell cycle arrest in human MDA-MB-231 cells assessed as G0/G1 phase cells at 300 nM incubated for 24 hrs by PI staining based flow cytometric analysis (reference value: 63.32 to 64.94%); assay type: functional
Homo sapiens = species on record: Homo sapiens; test: Antitumor activity against patient-derived breast cancer organoid assessed as phenotypic change at 5 uM incubated for 120 hrs by bright-field imaging microscopic analysis; assay type: functional, tissue-based
[31] = Antitumor activity against patient-derived breast cancer organoid assessed as reduction in cell viability incubated for 120 hrs by CellTiter-Glo 3D assay; assay type: functional, tissue-based; settings: Homo sapiens

Chain of Serine/threonine-protein kinase AKT (Homo sapiens) (P31749 whole entry, looked up): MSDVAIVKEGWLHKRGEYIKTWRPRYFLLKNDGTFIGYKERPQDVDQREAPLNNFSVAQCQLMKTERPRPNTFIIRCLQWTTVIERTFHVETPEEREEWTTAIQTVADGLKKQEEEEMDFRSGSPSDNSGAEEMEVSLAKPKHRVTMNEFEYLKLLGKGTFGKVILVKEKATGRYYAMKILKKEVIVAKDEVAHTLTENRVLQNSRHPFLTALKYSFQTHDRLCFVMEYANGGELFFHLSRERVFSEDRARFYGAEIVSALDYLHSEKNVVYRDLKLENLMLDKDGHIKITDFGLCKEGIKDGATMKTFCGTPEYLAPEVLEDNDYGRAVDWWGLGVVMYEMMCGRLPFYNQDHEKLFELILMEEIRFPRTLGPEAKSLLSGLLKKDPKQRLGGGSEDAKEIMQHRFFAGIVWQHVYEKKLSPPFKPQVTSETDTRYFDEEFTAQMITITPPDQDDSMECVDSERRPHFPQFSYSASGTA
Chain of Serine/threonine-protein kinase AKT (Homo sapiens) (P31751 whole entry, looked up): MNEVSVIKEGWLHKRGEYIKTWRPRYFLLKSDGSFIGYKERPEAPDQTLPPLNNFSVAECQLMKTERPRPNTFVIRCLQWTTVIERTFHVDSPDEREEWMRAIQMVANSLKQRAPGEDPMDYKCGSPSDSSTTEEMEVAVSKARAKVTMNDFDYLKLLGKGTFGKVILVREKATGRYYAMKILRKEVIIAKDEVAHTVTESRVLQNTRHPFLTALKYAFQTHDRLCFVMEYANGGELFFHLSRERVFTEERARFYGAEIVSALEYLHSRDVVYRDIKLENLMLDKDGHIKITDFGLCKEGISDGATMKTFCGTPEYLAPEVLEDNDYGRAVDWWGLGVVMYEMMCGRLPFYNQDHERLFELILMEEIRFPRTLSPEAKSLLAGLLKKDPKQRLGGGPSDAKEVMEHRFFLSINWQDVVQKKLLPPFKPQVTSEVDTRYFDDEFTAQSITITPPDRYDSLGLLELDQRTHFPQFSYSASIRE
Chain of Serine/threonine-protein kinase AKT (Homo sapiens) (Q9Y243 whole entry, looked up): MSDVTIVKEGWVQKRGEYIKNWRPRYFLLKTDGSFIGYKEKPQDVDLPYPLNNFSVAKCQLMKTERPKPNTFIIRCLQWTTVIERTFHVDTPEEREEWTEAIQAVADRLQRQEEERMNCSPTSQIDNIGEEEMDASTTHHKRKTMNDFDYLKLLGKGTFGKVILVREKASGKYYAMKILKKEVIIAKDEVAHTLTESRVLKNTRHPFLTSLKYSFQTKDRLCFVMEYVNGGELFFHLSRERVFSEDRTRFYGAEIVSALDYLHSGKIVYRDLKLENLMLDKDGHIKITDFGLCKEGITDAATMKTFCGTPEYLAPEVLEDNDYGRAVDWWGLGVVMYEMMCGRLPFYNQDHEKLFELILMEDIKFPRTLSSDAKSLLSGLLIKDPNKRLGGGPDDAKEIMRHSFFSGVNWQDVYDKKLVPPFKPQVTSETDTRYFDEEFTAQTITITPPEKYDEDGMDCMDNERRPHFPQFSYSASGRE
Chain of ALK tyrosine kinase receptor (Q9UM73 whole entry): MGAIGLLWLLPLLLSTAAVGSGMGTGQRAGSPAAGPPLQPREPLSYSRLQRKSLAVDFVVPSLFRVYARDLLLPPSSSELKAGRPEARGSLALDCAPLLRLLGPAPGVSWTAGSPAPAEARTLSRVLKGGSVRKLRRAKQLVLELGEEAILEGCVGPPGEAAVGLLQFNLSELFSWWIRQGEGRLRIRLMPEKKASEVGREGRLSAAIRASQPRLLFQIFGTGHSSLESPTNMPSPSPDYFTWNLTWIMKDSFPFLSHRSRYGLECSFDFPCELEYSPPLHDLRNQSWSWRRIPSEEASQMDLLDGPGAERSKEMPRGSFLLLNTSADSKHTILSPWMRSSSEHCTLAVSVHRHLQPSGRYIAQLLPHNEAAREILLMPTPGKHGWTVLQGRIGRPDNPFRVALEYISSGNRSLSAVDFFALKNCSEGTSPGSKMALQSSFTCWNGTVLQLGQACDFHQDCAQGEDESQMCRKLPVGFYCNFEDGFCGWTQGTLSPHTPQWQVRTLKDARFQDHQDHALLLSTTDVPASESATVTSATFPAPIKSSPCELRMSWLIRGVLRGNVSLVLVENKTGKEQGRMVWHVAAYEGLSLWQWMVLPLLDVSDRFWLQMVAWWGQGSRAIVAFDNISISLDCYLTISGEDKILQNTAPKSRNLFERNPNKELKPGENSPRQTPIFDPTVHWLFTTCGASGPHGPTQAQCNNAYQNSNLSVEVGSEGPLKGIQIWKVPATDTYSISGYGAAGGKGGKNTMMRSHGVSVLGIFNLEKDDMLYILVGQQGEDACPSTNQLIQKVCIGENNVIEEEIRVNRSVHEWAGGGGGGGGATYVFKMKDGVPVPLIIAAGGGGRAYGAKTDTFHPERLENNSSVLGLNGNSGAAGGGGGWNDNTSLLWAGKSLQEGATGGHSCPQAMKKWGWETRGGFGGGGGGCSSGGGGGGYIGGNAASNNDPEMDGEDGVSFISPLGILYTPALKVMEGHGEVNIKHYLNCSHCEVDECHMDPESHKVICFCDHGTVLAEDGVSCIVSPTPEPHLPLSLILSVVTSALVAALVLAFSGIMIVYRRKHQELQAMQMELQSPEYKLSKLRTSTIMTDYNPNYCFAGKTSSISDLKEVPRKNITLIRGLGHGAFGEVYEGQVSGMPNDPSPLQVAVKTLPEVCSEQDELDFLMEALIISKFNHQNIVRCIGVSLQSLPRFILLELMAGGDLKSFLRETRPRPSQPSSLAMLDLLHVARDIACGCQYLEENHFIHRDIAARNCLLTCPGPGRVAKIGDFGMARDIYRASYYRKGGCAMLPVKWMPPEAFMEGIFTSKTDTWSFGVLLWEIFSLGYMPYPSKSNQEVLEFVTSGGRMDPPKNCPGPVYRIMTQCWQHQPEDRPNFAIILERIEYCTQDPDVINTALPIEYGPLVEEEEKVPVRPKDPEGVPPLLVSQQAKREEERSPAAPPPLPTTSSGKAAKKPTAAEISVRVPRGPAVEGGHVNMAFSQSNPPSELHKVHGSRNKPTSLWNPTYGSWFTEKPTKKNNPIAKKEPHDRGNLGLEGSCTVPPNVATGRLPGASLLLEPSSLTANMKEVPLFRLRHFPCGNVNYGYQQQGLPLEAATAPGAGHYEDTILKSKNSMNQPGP

CCc1ccc2c(c1)c(=O)c(C(=O)Nc1ccc(Oc3ncnc4cc(OC)c(OC)cc34)c(F)c1)c(C)n2C
pIC50 (MDA-MB-231 [1]): < 5.30 | Activity (MDA-MB-231 [2]): inactive | Activity (MDA-MB-231 [3]): 27.64% | Activity (MDA-MB-231 [4]): 56.88% | pIC50 (MDA-MB-436): < 5.30 | Activity (MDA-MB-231 [5]): 1.99% | Activity (MDA-MB-231 [6]): 3.11% | inhibition (MDA-MB-231 [7]): inactive | Activity (MDA-MB-231 [8]): 16.56% | Activity (MDA-MB-231 [9]): 9.32% | Activity (MDA-MB-231 [10]): 0.41% | pIC50 [11]: 8.31 | Activity (MDA-MB-231 [12]): inactive | pIC50 (MDA-MB-453): < 5.30 | viability at 0.1 µM (MDA-MB-231 [13]): 94.6% | Activity (MDA-MB-231 [14]): 26.91% | Activity (MDA-MB-231 [15]): 24.87% | Activity (MDA-MB-231 [16]): 0.29% | Activity (MDA-MB-231 [17]): 1.8% | Activity (MDA-MB-231 [18]): inactive | Activity (MDA-MB-231 [19]): 3.01% | Activity (MDA-MB-231 [20]): 12.03% | Activity (MDA-MB-231 [21]): 3.02% | viability at 0.3 µM (MDA-MB-231 [22]): 95.1% | Activity (MDA-MB-231 [23]): 0.15% | Activity (MDA-MB-231 [24]): inactive | viability at 0.0333 µM (MDA-MB-231 [25]): 94.9% | inhibition [26]: inactive | inhibition (MDA-MB-231 [27]): Active | Activity (MDA-MB-231 [28]): 1.66% | Activity (MDA-MB-231 [29]): 52.76% | Activity (MDA-MB-231 [30]): 61.26%

CC(=O)O[C@H]1C(=O)[C@@]2(C)[C@H]([C@H](OC(=O)c3ccccc3)[C@]3(O)C[C@H](OC(=O)[C@H](O)[C@@H](NC(=O)c4ccccc4)c4ccccc4)C(C)=C1C3(C)C)[C@]1(OC(C)=O)CO[C@@H]1C[C@@H]2O [PACLITAXEL]
Activity (Homo sapiens): inactive | pIC50 [31]: < 5.30
